# Test results as given in patent US20220160842A1, “METHOD OF TREATING INFECTIVE ENDOCARDITIS” (priority 2019, published 2022).
# Where a name gives a salt, the structure may show the parent alone.
# Tests used:
# Assay in all cases: MIC by broth microdilution
# [1] = test system: S. lugdunensis; assay type: cell-based, Staphylococcus lugdunensis
# Protocol: (§1) Minimal inhibitory concentrations (MICs) of exebacase against staphylococci were determined by broth microdilution (BMD) using a nonstandard antimicrobial susceptibility testing (AST) medium comprised of cation-adjusted Mueller Hinton broth (caMHB) supplemented with horse serum (Sigma Aldrich) and dithiothreitol (DTT; Sigma Aldrich) to final concentrations of 25% and 0.5 mM, respectively. This medium, referred to as caMHB-HSD, is approved for use in exebacase AST by the Clinical and Laboratory Standards Institute (CLSI) (CLSI. 2017, Jan. 16-17. AST Subcommittee Working Group Meetings and Plenary. AST Meeting Files & Resources, clsi.org/education/microbiology/ast/ast-meeting-files-resources/. Additional supplementation with 2.5% lysed red blood cells (Remel™, ThermoFisher) was included for analyses of streptococcal isolates, as recommended by CLSI. See CLSI, 2015. Methods for Dilution Antimicrobial Susceptibility Tests for Bacteria That Grow Aerobically, 10th Edition. Clinical and Laboratory Standards Institute, Wayne, Pa.
# (§2) Daptomycin (Sigma Aldrich) and vancomycin hydrochloride (Sigma Aldrich) were tested following the reference BMD method for each. See CLSI. 2015. Methods for Dilution Antimicrobial Susceptibility Tests for Bacteria That Grow Aerobically, 10th Edition. Clinical and Laboratory Standards Institute, Wayne, Pa.
# [2] = test system: S. sanguinis; assay type: cell-based, Streptococcus sanguinis
# Protocol: as §1, §2
# [3] = test system: S. gallolyticus; assay type: cell-based, Streptococcus gallolyticus
# Protocol: as §1, §2
# [4] = test system: S. mutans; assay type: cell-based, Streptococcus mutans
# Protocol: as §1, §2
# [5] = test system: S. anginosus; assay type: cell-based, Streptococcus anginosus
# Protocol: as §1, §2
# [6] = test system: S. warneri; assay type: cell-based, Staphylococcus warneri
# Protocol: as §1, §2
# [7] = test system: S. mitis; assay type: cell-based, Streptococcus mitis
# Protocol: as §1, §2
# [8] = test system: S. haemolyticus; assay type: cell-based, Staphylococcus haemolyticus
# Protocol: as §1, §2
# [9] = test system: S. agalactiae; assay type: cell-based, Streptococcus agalactiae
# Protocol: as §1, §2
# [10] = test system: S. gordonii; assay type: cell-based, Streptococcus gordonii
# Protocol: as §1, §2
# [11] = test system: all staphylococci tested; assay type: cell-based
# Protocol: as §2
# [12] = test system: S. capitis; assay type: cell-based, Staphylococcus capitis
# Protocol: as §1, §2
# [13] = test system: E. faecalis; assay type: cell-based, Enterococcus faecalis
# Protocol: as §1, §2
# [14] = test system: S. dysgalactiae; assay type: cell-based, Streptococcus dysgalactiae
# Protocol: as §1, §2
# [15] = test system: S. aureus (MSSA); assay type: cell-based, Staphylococcus aureus
# Protocol: as §1, §2
# [16] = test system: S. aureus (MRSA); assay type: cell-based, Staphylococcus aureus
# Protocol: as §1, §2
# [17] = test system: S. pyogenes; assay type: cell-based, Streptococcus pyogenes
# Protocol: as §1, §2
# [18] = test system: S. salivarius; assay type: cell-based, Streptococcus salivarius
# Protocol: as §1, §2
# [19] = test system: S. oralis; assay type: cell-based, Streptococcus oralis
# Protocol: as §1, §2
# [20] = test system: S. pneumoniae; assay type: cell-based, Streptococcus pneumoniae
# Protocol: as §1, §2
smiles,measurement,setting,value
"CN[C@H](CC(C)C)C(=O)N[C@H]1C(=O)N[C@@H](CC(N)=O)C(=O)N[C@H]2C(=O)N[C@H]3C(=O)N[C@H](C(=O)N[C@H](C(=O)O)c4cc(O)cc(O)c4-c4cc3ccc4O)[C@H](O)c3ccc(c(Cl)c3)Oc3cc2cc(c3O[C@@H]2O[C@H](CO)[C@@H](O)[C@H](O)[C@H]2O[C@H]2C[C@](C)(N)[C@H](O)[C@H](C)O2)Oc2ccc(cc2Cl)[C@H]1O [VAN, vancomycin hydrochloride]",MIC Range,"[1]; S. lugdunensis, N=49",0.5 to 2 µg/mL
same,MIC50,[1]; Staphylococcus lugdunensis,1 µg/mL
same,MIC90,[1]; Staphylococcus lugdunensis,1 µg/mL
same,MIC Range,"[2]; S. sanguinis (viridans), N=15",0.5 to 2 µg/mL
same,MIC50,[2]; Streptococcus sanguinis,0.5 µg/mL
same,MIC90,[2]; Streptococcus sanguinis,0.5 µg/mL
same,MIC Range,"[3]; S. gallolyticus (bovis), N=19",0.25 to 0.5 µg/mL
same,MIC50,[3]; Streptococcus gallolyticus,0.25 µg/mL
same,MIC90,[3]; Streptococcus gallolyticus,0.5 µg/mL
same,MIC Range,"[4]; S. mutans (viridans), N=22",0.25 to 1 µg/mL
same,MIC50,[4]; Streptococcus mutans,1 µg/mL
same,MIC90,[4]; Streptococcus mutans,1 µg/mL
same,MIC Range,"[5]; S. anginosus (viridans), N=10",0.5 to 1 µg/mL
same,MIC50,[5]; Streptococcus anginosus,0.5 µg/mL
same,MIC90,[5]; Streptococcus anginosus,1 µg/mL
same,MIC Range,"[6]; S. warneri, N=23",0.25 to 2 µg/mL
same,MIC50,[6]; Staphylococcus warneri,1 µg/mL
same,MIC90,[6]; Staphylococcus warneri,2 µg/mL
same,MIC Range,"[7]; S. mitis (viridans), N=18",0.25 to 0.5 µg/mL
same,MIC50,[7]; Streptococcus mitis,0.5 µg/mL
same,MIC90,[7]; Streptococcus mitis,0.5 µg/mL
same,MIC Range,"[8]; S. haemolyticus, N=36",0.5 to 4 µg/mL
same,MIC50,[8]; Staphylococcus haemolyticus,1 µg/mL
same,MIC90,[8]; Staphylococcus haemolyticus,2 µg/mL
same,MIC Range,"[9]; S. agalactiae (group B), N=97",0.25 to 0.5 µg/mL
same,MIC50,[9]; Streptococcus agalactiae,0.5 µg/mL
same,MIC90,[9]; Streptococcus agalactiae,0.5 µg/mL
same,MIC Range,"[10]; S. gordonii (viridans), N=11",0.5 to 1 µg/mL
same,MIC50,[10]; Streptococcus gordonii,0.5 µg/mL
same,MIC90,[10]; Streptococcus gordonii,1 µg/mL
same,MIC Range,[11],0.5 to 4 µg/mL
same,MIC Range,"[12]; S. capitis, N=13",0.5 to 2 µg/mL
same,MIC50,[12]; Staphylococcus capitis,1 µg/mL
same,MIC90,[12]; Staphylococcus capitis,1 µg/mL
same,MIC Range,"[13]; E. faecalis (formerly group D), N=18",0.5 to 2 µg/mL
same,MIC50,[13]; Enterococcus faecalis,1 µg/mL
same,MIC90,[13]; Enterococcus faecalis,2 µg/mL
same,MIC Range,"[14]; S. dysgalactiae (group G), N=22",0.25 to 1 µg/mL
same,MIC50,[14]; Streptococcus dysgalactiae,0.5 µg/mL
same,MIC90,[14]; Streptococcus dysgalactiae,0.5 µg/mL
same,MIC Range,"[15]; S. aureus (MSSA), N=73",0.5 to 1 µg/mL
same,MIC50,"[15]; Staphylococcus aureus, MSSA",1 µg/mL
same,MIC90,"[15]; Staphylococcus aureus, MSSA",1 µg/mL
same,MIC Range,"[16]; S. aureus (MRSA), N=74",1 to 2 µg/mL
same,MIC50,"[16]; Staphylococcus aureus, MRSA",1 µg/mL
same,MIC90,"[16]; Staphylococcus aureus, MRSA",1 µg/mL
same,MIC Range,"[17]; S. pyogenes (group A), N=100",0.25 to 0.5 µg/mL
same,MIC50,[17]; Streptococcus pyogenes,0.5 µg/mL
same,MIC90,[17]; Streptococcus pyogenes,0.5 µg/mL
same,MIC Range,"[18]; S. salivarius (viridans), N=12",0.25 to 0.5 µg/mL
same,MIC50,[18]; Streptococcus salivarius,0.5 µg/mL
same,MIC90,[18]; Streptococcus salivarius,0.5 µg/mL
same,MIC Range,"[19]; S. oralis (viridans), N=15",0.5 to 1 µg/mL
same,MIC50,[19]; Streptococcus oralis,0.5 µg/mL
same,MIC90,[19]; Streptococcus oralis,1 µg/mL
same,MIC Range,"[20]; S. pneumoniae, N=59",0.25 to 0.5 µg/mL
same,MIC50,[20]; Streptococcus pneumoniae,0.25 µg/mL
same,MIC90,[20]; Streptococcus pneumoniae,0.5 µg/mL
